Test results from a melting point compilation (Tetko et al.; mined from patent text by program, amines drawn as free bases though some values may be those of a salt).

| SMILES | melting point [°C] |
| --- | --- |
| O=C1NCc2c(-c3ccccc3)cccc2N1Cc1ccccc1 | 198 to 199 |
| Cc1cc(-c2ccc(S(C)(=O)=O)cc2)n(-c2ccc(Br)cc2)c1C | 215 to 219 |
| CC1(C)CC(O)CC(C)(C)N1CC(O)CO (stereo not drawn) | 97 to 99 |
| COc1ccc(-c2ccc(C)nc2-c2ccc(OCCN3CCCC3)cc2)cc1 | 63 to 64 |
| O=c1nc(-c2cc(-c3ccccc3)ccn2)sc2ccccc12 | 164 to 165 |
| O=C1OC(=O)c2cc3cccnc3c3cc([N+](=O)[O-])cc1c23 | 268 to 269 |
| O=C1c2ccccc2S(=O)(=O)N1C(c1cccs1)c1nnnn1-c1ccccc1 (stereo not drawn) | 192 to 193 |
| O=C(N[C@@H](CO)C(=O)NCCc1ccccc1)c1ccc(C(=O)c2cccnc2)cc1 | 85 to 90 |
| CC(C)C[C@H](NC(=O)N1CCCCCC1)C(=O)N[C@](C)(Cc1ccc(OCc2ccccc2)cc1)C(=O)OC(C)(C)C | 46 to 49 |
| CCOP(=O)(OCC)C(F)(F)c1ccc(NC(=O)CCc2oc(-n3cnc4ccccc43)nc2-c2ccc(Cl)cc2)cc1 | 155 to 156 |
| C[C@@H](n1cnc2cc(N3CCOCC3)ccc2c1=O)[C@](O)(Cn1cncn1)c1ccc(F)cc1F | 196 to 197 |
| COC(=O)C1(C)Cc2c([nH]c3ccc(OC)cc23)C(c2ccccc2)N1 (stereo not drawn) | 172 to 175 |
| Cc1nc(-c2ccc(O)cc2)c(C(C)C)s1 | 165 |
| OC(Cn1cncn1)(c1ccc(Cl)cn1)c1ccc(Cl)cn1 | 98 to 100 |
| CCNC(=O)NS(=O)(=O)c1ccccc1-c1ccc(Cn2c(CC)nc3c(C)ccnc32)cc1 | 240 to 245 |
| Nc1cc2c(cc1Oc1ccc(F)cc1)CCC2 | 123 |
| COCCCN(C(=O)N(CCCl)N=O)C1(O)C(OCC(C)C)OCC(O)C1O (stereo not drawn) | 84 to 86 |
| CCOc1ccccc1C(=O)CCC(=O)O | 125 to 127 |
| C[C@@H]1CN(C(=O)OC(C)(C)C)C[C@H]2Cc3cc(F)cnc3N21 | 56.6 to 58.4 |
| CC(C)c1ccc(N(C)C(=O)Cn2cnc3c2c(=O)n(C)c(=O)n3C)cc1 | 231 to 233 |
| Cc1c(CO)c(CO)c2sc3ccccc3n12 | 138 to 139 |
| CC(C)Oc1cc(-n2c(=O)c3c(n(C)c2=O)CCC3)c(F)cc1Cl | 105 to 107 |
| CC(Cc1c[nH]c2ccccc12)C1CCNCC1 (stereo not drawn) | 150 |
| O=S(=O)(Cl)c1ccc2ccc(Br)cc2c1 | 100 to 101 |
| CCN1CCN(c2nccc(Oc3ccc(NC(=O)c4cc(F)cc(N5CCOCC5)c4)c4ccccc34)n2)CC1 | 185 to 186 |

| SMILES | melting point [°C] |
| --- | --- |
| COC(=O)c1ccc(OCCNC(=O)C2Cc3ccccc3N2S(=O)(=O)c2ccc(-c3ccc(F)cc3)cc2)c(Cl)c1 (stereo not drawn) | 84 to 90 |
| O=C(O)CCCCCSc1ccc(NS(=O)(=O)c2ccc(Cl)cc2)cc1 | 160 to 163 |
| CCCCNc1nc(C)c(C#N)cc1C(=O)OCC | 61 to 63 |
| O=C(O)CNC(=O)c1ccc(-c2ccc3nnn(Cc4ccc5ncccc5c4)c3n2)cc1F | 252 to 254 |
| COc1cc(C=CN(C)C)ccc1[N+](=O)[O-] | 57 to 58.5 |
| O=C(Nc1ccccc1)Nc1[nH]c2ccccc2c1-c1ccccc1 | 210 to 212 |
| COc1ccc2c(c1)N(CCNC(C)=O)CCO2 | 107 to 108 |
| O=C(O)C=Cc1ccc(Oc2nsnc(Cl)c2=O)cc1 | > 280 |
| CC(O)c1ccc(Cl)c(Cl)c1Cl (stereo not drawn) | 87 to 89 |
| Nc1c2c(nc3ccccc13)CCCC2=O | 236 to 238 |
| COc1ccc(-c2nn(C3CCC3)c3c(C(F)(F)F)cccc23)c(OC)c1 | 109 to 110 |
| Fc1ccc(C=C(c2ccccc2)C(F)(F)F)cc1 | 35 to 41 |
| O=C(O)c1cn(C2CC2)c2c(Cl)c(N3CCC(CNCCF)C3)c(F)cc2c1=O (stereo not drawn) | 138 to 142 |
| CC1(C)OC(=O)C(c2cccc(F)c2)=C1c1ccc(S(C)(=O)=O)cc1 | 173 |
| CCCc1cc2c(c3c1[nH]c1ccc(OC)cc13)C(=O)N(CCN(C)C)C2=O | 207 to 208 |
| CCC(C#N)(C#N)Cc1ccc(Cl)cc1 | 70.9 |
| Cc1c(N)c2c(c3c1C(c1ccc(C(C)C)cc1)CO3)CCCC2 (stereo not drawn) | 106 to 107 |
| CC(Cl)(Cl)C(=O)N1CCCC1C(=O)O (stereo not drawn) | 61 to 62 |
| CCOC(=O)COc1ccc(C(=O)Nc2cc(Cl)ccc2Sc2ccccc2-c2nnn[nH]2)cc1 | 206 to 208 |
| O=C1CCCC(c2ccc(Cl)cc2)N1c1cccnc1 (stereo not drawn) | 107 to 108 |
| Nc1nc(NCCc2ccccc2)nc(-c2cc(Cl)ccc2Cl)n1 | 217 to 218 |
| COc1ccc(-c2ccc(COc3cccc4cc(NS(=O)(=O)C(F)(F)F)ccc34)c(F)c2)cc1 | 108 to 111 |
| CCOP(=O)(CC(=O)NNc1nc2ccc(C(F)(F)F)cc2n(OCc2ccccc2)c1=O)OCC | 163 to 166 |
| COC(=O)CCCc1ccc(CNC(=O)C2Cc3ccccc3N2S(=O)(=O)c2ccc(-c3cccc(C(F)(F)F)c3)cc2)cc1 (stereo not drawn) | 55 |
| Cc1c(C(=O)NCc2ccccc2)nc(-n2ccc(OCc3ccccc3)cc2=O)n1C | 190 to 191 |

| SMILES | melting point [°C] |
| --- | --- |
| CCc1nc(-c2ncn3c4ccccc4c(=O)n(C)c23)no1 | 199 to 202 |
| CCCc1c(OCCOc2cccc(C(=O)OCC)c2)ccc(C(C)=O)c1O | 58 to 60 |
| CC1(O)c2ccccc2C2=NCCCN21 (stereo not drawn) | 199 to 201 |
| COCC1CN(c2ccc(C3=CCCCC3)cc2)C(=O)O1 (racemic) | 106 to 108 |
| CC(C)c1nc(CCOC(=O)N[C@H](C(=O)N[C@@H](Cc2ccccc2)C[C@H](O)[C@H](Cc2ccccc2)NC(=O)OCc2cncs2)C(C)C)cs1 | 146 to 147 |
| O=C(O)c1coc2ccc(Br)cc2c1=O | 260 to 264 |
| CC(=NOCCOc1ccc(CC2OC(=O)N(C(c3ccccc3)(c3ccccc3)c3ccccc3)C2=O)cc1)c1ccc(-c2ccccc2)cc1 (stereo not drawn) | 193 to 195 |
| CCOC(=O)C(Cc1cn(C)c2c(Cl)cccc12)(NC=O)C(=O)OCC | 83 to 87 |
| CC12CCC(C(=O)O)=CC1=CCC1C2CCC2(C)C(C(=O)N(C(=O)NC3CCCCC3)C3CCCCC3)CCC12 (stereo not drawn) | 253 to 255 |
| Cc1ccc(NCC2CCNCC2)c(C(=O)Nc2ccc(F)cn2)c1 | 147 to 149 |
| Fc1ccccc1[C@]1(Cn2nc[nH]c2=S)O[C@H]1c1ccccc1Cl (racemic) | 179 |
| Cc1cn(C[C@H]2CC[C@@H](CO)O2)c(=O)[nH]c1=O | 133 to 135 |
| N#CC(c1ccccc1)(c1ccccc1)[C@H]1CCCN(CCc2ccc3c(c2)CCC3)C1 | 88 to 91 |
| CCCCc1nc(CO)c(C(=O)O)n1Cc1ccc(-c2ccccc2C(=O)O)cc1 | 130 to 140 |
| OCCCCCCCCCCCCCCCCc1c[nH]c2ccccc12 | 79 to 80 |
| O=C(N1CCc2cccc(O)c2CC1)C(F)(F)F | 183 to 186 |
| OC(CCNCc1ccccc1)(c1ccccc1)c1ccccc1 | 145 to 146 |
| Clc1ccc(-c2[nH]nc3c2Cc2ccccc2-3)cc1 | 266 to 268 |
| Fc1cccc(CC2(Cc3cccc(F)n3)c3cccnc3-c3ncccc32)n1 | 221 to 225 |
| CCOC(=O)N(C)c1cccc(-c2ccc3nnc(C)n3n2)c1 | 146 to 149 |
| ClC1=Nc2cc(Cl)ccc2Cn2cccc21 | 129 to 135 |
| N#Cc1n[nH]c2ccccc12 | 138 to 140 |
| COc1ccccc1-n1c(=O)[nH]c2c(C(N)=O)nc(-c3ccc(O)cc3)nc21 | 362 to 363 |
| CCOc1nc2cc(C)nn2c2cc(Cl)ncc12 | 176 |
| C=CCOc1cc(-n2c(=O)cc(C(F)(F)F)n(C)c2=O)ccc1C#N | 158 to 160 |

| SMILES | melting point [°C] |
| --- | --- |
| CCOC(=O)C(=O)Nc1ccncc1 | 110 to 113 |
| O=C1c2cc([N+](=O)[O-])cc3cc([N+](=O)[O-])cc(c23)C(=O)N1O | 317 to 320 |
| Cc1cc(=O)n(-c2cc(C(=O)O)c(Cl)cc2F)c(=O)n1C(F)F | 247 to 248 |
| CC(=O)OC1CCC2(C)C(=CCC3C2CCC2(C)C(n4ccnc4)=C(C=O)CC32)C1 (stereo not drawn) | 218 to 220 |
| Cc1cccc(NC(=O)NCC(=O)N(CC(=O)N(C)c2ccc(F)cc2)c2ccccc2)c1 | 135 |
| COc1cc2c3c(cccc3c1N1CCCCC1)C(=O)N(O)C2=O | 204 to 205 |
| COc1cccc(-c2nc(Cl)nc(Cl)n2)c1 | 114 |
| CCOC(=O)NS(=O)(=O)c1ccc2c(c1)CCN(C(=O)N(C)C)CC2 | 140 to 141 |
| O=C1CCc2ccc(Oc3cccc(CN4CCN(c5cccc(Cl)c5Cl)CC4)c3)cc2N1 | 182 to 183 |
| CC(C)C(=O)N1CCC(c2nc3cc(-c4ccc(-n5cnnn5)cc4F)ccc3o2)CC1 | 190 to 194 |
| COc1ccc(-c2nc(Sc3ccc(C)cc3)n(Cc3ccccc3)c2-c2ccc(OC)cc2)cc1 | 115 to 117 |
| COc1ccc(CNC(=O)c2ccc3n2Cc2ccccc2N(C(=O)c2ccc(-c4ccccc4C)c(C)c2)C3)cc1 | 127 to 128 |
| OCc1cccc(Oc2nn(Cc3ccccc3)c3ccccc23)n1 | 156 to 158 |
| CCCCC(COc1cccc(COc2cccc3cccnc23)c1)OC(C)=O (stereo not drawn) | 85 to 86 |
| Cc1cc2c(s1)Nc1ccccc1N=C2N1CCN(C)CC1 | 190 to 193 |
| Cc1nc(NCC(C)C)sc1C(=O)c1ccc(N)c([N+](=O)[O-])c1 | 210 to 215 |
| CCC1(C)CC(NC(=O)c2ccccc2C(=O)O)C(C)C(C)(CC)N1 (stereo not drawn) | 196 to 197 |
| Oc1cnc2c(c1)CCC(c1ccc(Cl)c(Cl)c1)O2 (stereo not drawn) | 218 to 219 |
| Cc1ccc(-n2nc3c4cc(CCc5ccccc5)ccc4[nH]c(=O)n3c2=O)cc1 | 303 |
| COC(=O)c1sc2cc(C(F)(F)F)ccc2c1NC(C)=O | 204 to 205 |
| OCCCc1ccc2c(c1)Cc1cc(CCCO)ccc1-2 | 160 to 180 |
| CC(=O)Oc1cc(C(=O)N2CCC(C(=O)C3CCCCC3)CC2)c([N+](=O)[O-])cc1OC(C)=O | 160 to 165 |
| CN(C)C(Cl)=Nc1snc(C(C)(C)C)c1C#N | 94 to 100 |
